Data reported in the NIST ThermoML archive (doi:10.1016/j.jct.2016.08.005).

Settings: Liquid, Vibrating tube method

c1ccsc1 [thiophene]
Settings	mass density [kg/m3]
283.15 K, 100 kPa	1076.4
283.15 K, 2000 kPa	1077.94
283.15 K, 5000 kPa	1080.27
283.15 K, 7000 kPa	1081.81
283.15 K, 10000 kPa	1084.09
283.15 K, 15000 kPa	1087.78
283.15 K, 20000 kPa	1091.37
283.15 K, 25000 kPa	1094.82
283.15 K, 30000 kPa	1098.18
283.15 K, 35000 kPa	1101.44
283.15 K, 40000 kPa	1104.61
283.15 K, 45000 kPa	1107.7
283.15 K, 50000 kPa	1110.71
283.15 K, 55000 kPa	1113.62
283.15 K, 60000 kPa	1116.47
283.15 K, 65000 kPa	1119.27
288.15 K, 100 kPa	1070.54
288.15 K, 2000 kPa	1072.11
288.15 K, 5000 kPa	1074.53
288.15 K, 7000 kPa	1076.12
288.15 K, 10000 kPa	1078.46
288.15 K, 15000 kPa	1082.24
288.15 K, 20000 kPa	1085.9
288.15 K, 25000 kPa	1089.45
288.15 K, 30000 kPa	1092.91
288.15 K, 35000 kPa	1096.24
288.15 K, 40000 kPa	1099.5
288.15 K, 45000 kPa	1102.65
288.15 K, 50000 kPa	1105.72
288.15 K, 55000 kPa	1108.7
288.15 K, 60000 kPa	1111.61
288.15 K, 65000 kPa	1114.44
293.15 K, 100 kPa	1064.59
293.15 K, 2000 kPa	1066.21
293.15 K, 5000 kPa	1068.67
293.15 K, 7000 kPa	1070.33
293.15 K, 10000 kPa	1072.75
293.15 K, 15000 kPa	1076.63
293.15 K, 20000 kPa	1080.39
293.15 K, 25000 kPa	1084.05
293.15 K, 30000 kPa	1087.58
293.15 K, 35000 kPa	1091.01
293.15 K, 40000 kPa	1094.34
293.15 K, 45000 kPa	1097.57
293.15 K, 50000 kPa	1100.7
293.15 K, 55000 kPa	1103.77
293.15 K, 60000 kPa	1106.72
293.15 K, 65000 kPa	1109.63
298.15 K, 100 kPa	1058.65
298.15 K, 2000 kPa	1060.32
298.15 K, 5000 kPa	1062.91
298.15 K, 7000 kPa	1064.57
298.15 K, 10000 kPa	1067.05
298.15 K, 15000 kPa	1071.07
298.15 K, 20000 kPa	1074.94
298.15 K, 25000 kPa	1078.69
298.15 K, 30000 kPa	1082.3
298.15 K, 35000 kPa	1085.81
298.15 K, 40000 kPa	1089.21
298.15 K, 45000 kPa	1092.53
298.15 K, 50000 kPa	1095.73
298.15 K, 55000 kPa	1098.86
298.15 K, 60000 kPa	1101.89
298.15 K, 65000 kPa	1104.85
303.15 K, 100 kPa	1052.71
303.15 K, 2000 kPa	1054.43
303.15 K, 5000 kPa	1057.07
303.15 K, 7000 kPa	1058.82
303.15 K, 10000 kPa	1061.36
303.15 K, 15000 kPa	1065.48
303.15 K, 20000 kPa	1069.46
303.15 K, 25000 kPa	1073.3
303.15 K, 30000 kPa	1077.03
303.15 K, 35000 kPa	1080.62
303.15 K, 40000 kPa	1084.1
303.15 K, 45000 kPa	1087.49
303.15 K, 50000 kPa	1090.79
303.15 K, 55000 kPa	1093.96
303.15 K, 60000 kPa	1097.06
303.15 K, 65000 kPa	1100.09
308.15 K, 100 kPa	1046.7
308.15 K, 2000 kPa	1048.48
308.15 K, 5000 kPa	1051.21
308.15 K, 7000 kPa	1052.99
308.15 K, 10000 kPa	1055.61
308.15 K, 15000 kPa	1059.87
308.15 K, 20000 kPa	1063.97
308.15 K, 25000 kPa	1067.92
308.15 K, 30000 kPa	1071.73
308.15 K, 35000 kPa	1075.4
308.15 K, 40000 kPa	1078.99
308.15 K, 45000 kPa	1082.45
308.15 K, 50000 kPa	1085.8
308.15 K, 55000 kPa	1089.07
308.15 K, 60000 kPa	1092.23
308.15 K, 65000 kPa	1095.31
313.15 K, 100 kPa	1040.68
313.15 K, 2000 kPa	1042.52
313.15 K, 5000 kPa	1045.35
313.15 K, 7000 kPa	1047.19
313.15 K, 10000 kPa	1049.91
313.15 K, 15000 kPa	1054.25
313.15 K, 20000 kPa	1058.47
313.15 K, 25000 kPa	1062.52
313.15 K, 30000 kPa	1066.43
313.15 K, 35000 kPa	1070.21
313.15 K, 40000 kPa	1073.88
313.15 K, 45000 kPa	1077.41
313.15 K, 50000 kPa	1080.86
313.15 K, 55000 kPa	1084.2
313.15 K, 60000 kPa	1087.42
313.15 K, 65000 kPa	1090.59
318.15 K, 100 kPa	1034.64
318.15 K, 2000 kPa	1036.54
318.15 K, 5000 kPa	1039.44
318.15 K, 7000 kPa	1041.36
318.15 K, 10000 kPa	1044.15
318.15 K, 15000 kPa	1048.65
318.15 K, 20000 kPa	1052.97
318.15 K, 25000 kPa	1057.12
318.15 K, 30000 kPa	1061.15
318.15 K, 35000 kPa	1065.02
318.15 K, 40000 kPa	1068.77
318.15 K, 45000 kPa	1072.41
318.15 K, 50000 kPa	1075.92
318.15 K, 55000 kPa	1079.33
318.15 K, 60000 kPa	1082.65
318.15 K, 65000 kPa	1085.87
323.15 K, 100 kPa	1028.59
323.15 K, 2000 kPa	1030.52
323.15 K, 5000 kPa	1033.54
323.15 K, 7000 kPa	1035.52
323.15 K, 10000 kPa	1038.37
323.15 K, 15000 kPa	1042.99
323.15 K, 20000 kPa	1047.45
323.15 K, 25000 kPa	1051.73
323.15 K, 30000 kPa	1055.85
323.15 K, 35000 kPa	1059.82
323.15 K, 40000 kPa	1063.67
323.15 K, 45000 kPa	1067.38
323.15 K, 50000 kPa	1070.98
323.15 K, 55000 kPa	1074.48
323.15 K, 60000 kPa	1077.86
323.15 K, 65000 kPa	1081.13
328.15 K, 100 kPa	1022.43
328.15 K, 2000 kPa	1024.49
328.15 K, 5000 kPa	1027.57
328.15 K, 7000 kPa	1029.6
328.15 K, 10000 kPa	1032.58
328.15 K, 15000 kPa	1037.33
328.15 K, 20000 kPa	1041.91
328.15 K, 25000 kPa	1046.31
328.15 K, 30000 kPa	1050.54
328.15 K, 35000 kPa	1054.61
328.15 K, 40000 kPa	1058.55
328.15 K, 45000 kPa	1062.36
328.15 K, 50000 kPa	1066.05
328.15 K, 55000 kPa	1069.6
328.15 K, 60000 kPa	1073.07
328.15 K, 65000 kPa	1076.42
333.15 K, 100 kPa	1016.27
333.15 K, 2000 kPa	1018.35
333.15 K, 5000 kPa	1021.56
333.15 K, 7000 kPa	1023.65
333.15 K, 10000 kPa	1026.72
333.15 K, 15000 kPa	1031.63
333.15 K, 20000 kPa	1036.34
333.15 K, 25000 kPa	1040.87
333.15 K, 30000 kPa	1045.21
333.15 K, 35000 kPa	1049.39
333.15 K, 40000 kPa	1053.43
333.15 K, 45000 kPa	1057.32
333.15 K, 50000 kPa	1061.09
333.15 K, 55000 kPa	1064.72
333.15 K, 60000 kPa	1068.26
333.15 K, 65000 kPa	1071.7
338.15 K, 100 kPa	1010.08
338.15 K, 2000 kPa	1012.22
338.15 K, 5000 kPa	1015.53
338.15 K, 7000 kPa	1017.69
338.15 K, 10000 kPa	1020.86
338.15 K, 15000 kPa	1025.92
338.15 K, 20000 kPa	1030.78
338.15 K, 25000 kPa	1035.41
338.15 K, 30000 kPa	1039.88
338.15 K, 35000 kPa	1044.17
338.15 K, 40000 kPa	1048.31
338.15 K, 45000 kPa	1052.28
338.15 K, 50000 kPa	1056.13
338.15 K, 55000 kPa	1059.87
338.15 K, 60000 kPa	1063.48
338.15 K, 65000 kPa	1066.99
